The values that follow come from PMC12624743 (ACS Infectious Diseases, 2025).

For test [1], the target named is T1, N. gonorrhoeae gyrase GyrA^A92T (Neisseria gonorrhoeae, UniProt P48371, A92T).
T1 construct: His; made in house
Put plainly: Gyrase-catalyzed DNA supercoiling assay, GyrA^A92T. Type of test: biochemical. As for the experimental part: (§1) All proteins were His-tagged. N. gonorrhoeae WT gyrase (GyrA, GyrB) and topoisomerase IV (ParC, ParE) subunits as well as mutant GyrA^D90N, GyrA^A92T, GyrA^S91F, and GyrA^S91F/D95G gyrase and ParC^D86N and ParC^S88P topoisomerase IV were prepared as described previously. , N. gonorrhoeae mutant GyrA^D95G gyrase and mutant ParC^S87N and ParC^E91G topoisomerase IV were generated using a QuickChange II XL site-directed mutagenesis kit (Agilent Technologies) with custom primers for the desired mutations. […] The identities of all constructs were confirmed by DNA sequencing, and all enzymes were stored at −80 °C. In all assays, N. gonorrhoeae gyrase or topoisomerase IV was used as a 1:1 GyrA:GyrB or ParC:ParE mixture, respectively, and the stated enzyme concentration reflects that of the holoenzyme (A2B2).
(§2) Samples were mixed with 2 μL of loading dye [60% sucrose, 10 mM Tris–HCl (pH 7.9), 0.5% bromophenol blue, and 0.5% xylene cyanol FF] and incubated at 45 °C for 2 min before being subjected to electrophoresis on 1% agarose gels in 100 mM Tris-borate (pH 8.3) and 2 mM EDTA. […] DNA bands were visualized with medium-range ultraviolet light and quantified using an Alpha Innotech digital imaging system (Protein Simple). DNA supercoiling was monitored by the conversion of relaxed to supercoiled plasmid.

Test [2] has as its target T2, N. gonorrhoeae gyrase GyrA^S91F (Neisseria gonorrhoeae, UniProt P48371, S91F).
T2 construct: His; made in house
Description: DNA cleavage assay, GyrA^S91F gyrase. Type of test: biochemical. Here is the method: (§3) Some experiments replaced MgCl2 with an equivalent concentration of CaCl2 (10 mM), or 1.5 mM ATP was added to assay mixtures.
(§4) Reactions were incubated at 37 °C for 30 min with WT and mutant (GyrA^D90N, GyrA^A92T, GyrA^S91F, GyrA^D95G, or GyrA^S91F/D95G) N. gonorrhoeae gyrase, 10 min with WT N. gonorrhoeae topoisomerase IV, and 20 min with mutant (ParC^D86N, ParC^S88P, ParC^S87N, or ParC^E91G) N. gonorrhoeae topoisomerase IV. Enzyme-DNA cleavage complexes were trapped by adding 2 μL of 5% SDS followed by 2 μL of 250 mM EDTA (pH 8.0). Proteinase K was added (2 μL of a 0.8 mg/mL solution), and reaction mixtures were incubated at 45 °C for 30 min to digest the enzyme. Samples were mixed with 2 μL of loading buffer and heated at 45 °C for 2 min prior to electrophoresis in 1% agarose gels in 40 mM Tris-acetate (pH 8.3), and 2 mM EDTA containing 0.5 μg/mL ethidium bromide. DNA bands were visualized by midrange ultraviolet light and quantified using an Alpha Innotech digital imaging system (Protein Simple). Single-stranded DNA cleavage was monitored by the conversion of negatively supercoiled to nicked plasmid molecules.

The subject of test [3] is uncomplicated urogenital gonorrhea. Further details: method as in recent phase III clinical trial. As to conditions: vs intramuscular ceftriaxone plus oral azithromycin, ref recent phase III clinical trial; cited from earlier work.
Test [4] deals with N. gonorrhoeae FA1090E-2 (GyrA^WT/ParC^D86N). Put plainly: MIC by agar dilution, ParC^D86N strain. Type of test: cell-based. The following applies: Neisseria gonorrhoeae. As for the experimental part:
Mutations in these efflux genes can result in increased efflux to multiple antibiotics. […] Parental and isogenic mutant strains generated that carried the efflux mutations mtrR-79 and norM ΔT T6 were designated as FA1090E (E for efflux positive). Only the additional GyrA and ParC genotypes are described in Table and in the text. The mutant that additionally expressed ParC^D86N was named FA1090E-2.
Minimum inhibitory concentration (MIC) of test compounds was determined by an agar dilution method, the reference testing method for N. gonorrhoeae according to the standards of the Clinical and Laboratory Standards Institute and the CDC.
For orientation: In agar dilution, organisms are placed on agar that contains the substance at set levels.

The test system of test [5] is N. gonorrhoeae topoisomerase IV ParC^S87N. Description: biochemical. The following applies: ParC S87N vs WT. As for the experimental part:
as §3, §4

The target in test [6] is T3, N. gonorrhoeae topoisomerase IV ParC^S88P (Neisseria gonorrhoeae, UniProt P48374, S88P).
T3 sequence (P48374 1-768 S88P): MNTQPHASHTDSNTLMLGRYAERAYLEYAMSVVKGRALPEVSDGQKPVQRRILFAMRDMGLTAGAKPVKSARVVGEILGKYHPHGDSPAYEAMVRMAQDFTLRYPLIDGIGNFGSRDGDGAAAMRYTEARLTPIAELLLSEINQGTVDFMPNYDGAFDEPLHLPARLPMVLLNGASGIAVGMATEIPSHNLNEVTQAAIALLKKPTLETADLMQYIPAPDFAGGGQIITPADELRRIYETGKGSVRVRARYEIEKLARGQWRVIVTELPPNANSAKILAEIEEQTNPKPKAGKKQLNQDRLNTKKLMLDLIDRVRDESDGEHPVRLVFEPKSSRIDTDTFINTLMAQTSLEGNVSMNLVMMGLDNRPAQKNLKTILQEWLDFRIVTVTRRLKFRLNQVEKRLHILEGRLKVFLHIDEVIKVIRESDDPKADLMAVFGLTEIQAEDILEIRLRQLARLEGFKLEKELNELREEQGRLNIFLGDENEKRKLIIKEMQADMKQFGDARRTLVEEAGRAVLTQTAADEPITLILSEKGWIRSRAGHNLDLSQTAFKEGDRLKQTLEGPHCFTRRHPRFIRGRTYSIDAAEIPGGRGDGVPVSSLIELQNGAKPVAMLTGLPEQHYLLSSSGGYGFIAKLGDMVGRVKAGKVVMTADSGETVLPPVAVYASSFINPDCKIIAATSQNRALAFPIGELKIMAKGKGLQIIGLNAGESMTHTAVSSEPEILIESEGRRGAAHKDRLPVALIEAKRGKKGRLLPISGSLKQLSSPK
Description: biochemical. Here is the method: as §3, §4

The target of test [7] is N. gonorrhoeae topoisomerase IV ParC^S87N (Neisseria gonorrhoeae, UniProt P48374, S87N). Description: biochemical. As for the experimental part: as §3, §4
Test [8] addresses N. gonorrhoeae topoisomerase IV ParC^E91G (Neisseria gonorrhoeae, UniProt P48374, E91G). Description: biochemical. Here is the method: as §3, §4
Test [9] addresses T2, N. gonorrhoeae gyrase GyrA^S91F. Put plainly: Gyrase-catalyzed DNA supercoiling assay, GyrA^S91F. Type of test: biochemical. As for the experimental part: as §1, §2

The structures appear in SMILES notation. Values after ≈ are worked out from the molar mass of the structure shown. “Also recorded” adds a separate entry of the source.

T2 sequence (P48371 whole entry S91F): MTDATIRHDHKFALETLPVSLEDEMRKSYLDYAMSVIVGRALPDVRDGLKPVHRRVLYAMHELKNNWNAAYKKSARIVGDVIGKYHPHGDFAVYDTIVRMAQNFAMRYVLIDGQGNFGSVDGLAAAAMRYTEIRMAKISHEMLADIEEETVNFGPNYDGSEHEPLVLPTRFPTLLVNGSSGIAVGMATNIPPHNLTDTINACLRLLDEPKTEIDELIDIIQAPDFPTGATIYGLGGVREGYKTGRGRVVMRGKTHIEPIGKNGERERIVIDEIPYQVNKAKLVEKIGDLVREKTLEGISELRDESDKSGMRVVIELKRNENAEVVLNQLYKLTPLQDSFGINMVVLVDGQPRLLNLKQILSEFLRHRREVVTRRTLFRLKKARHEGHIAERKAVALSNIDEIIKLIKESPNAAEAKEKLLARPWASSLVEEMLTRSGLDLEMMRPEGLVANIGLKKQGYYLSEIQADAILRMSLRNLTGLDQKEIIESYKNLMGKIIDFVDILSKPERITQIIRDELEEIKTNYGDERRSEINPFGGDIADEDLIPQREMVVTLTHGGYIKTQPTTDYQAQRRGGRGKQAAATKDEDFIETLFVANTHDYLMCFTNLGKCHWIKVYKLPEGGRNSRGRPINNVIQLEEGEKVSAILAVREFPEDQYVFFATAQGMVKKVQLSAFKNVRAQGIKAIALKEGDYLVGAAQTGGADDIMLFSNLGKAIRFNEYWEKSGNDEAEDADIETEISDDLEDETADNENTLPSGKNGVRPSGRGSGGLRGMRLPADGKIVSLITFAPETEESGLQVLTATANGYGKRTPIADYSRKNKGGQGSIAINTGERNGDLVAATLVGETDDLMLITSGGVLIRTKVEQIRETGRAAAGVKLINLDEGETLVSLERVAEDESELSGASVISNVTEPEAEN
T2 sequence (P22118 whole entry partner): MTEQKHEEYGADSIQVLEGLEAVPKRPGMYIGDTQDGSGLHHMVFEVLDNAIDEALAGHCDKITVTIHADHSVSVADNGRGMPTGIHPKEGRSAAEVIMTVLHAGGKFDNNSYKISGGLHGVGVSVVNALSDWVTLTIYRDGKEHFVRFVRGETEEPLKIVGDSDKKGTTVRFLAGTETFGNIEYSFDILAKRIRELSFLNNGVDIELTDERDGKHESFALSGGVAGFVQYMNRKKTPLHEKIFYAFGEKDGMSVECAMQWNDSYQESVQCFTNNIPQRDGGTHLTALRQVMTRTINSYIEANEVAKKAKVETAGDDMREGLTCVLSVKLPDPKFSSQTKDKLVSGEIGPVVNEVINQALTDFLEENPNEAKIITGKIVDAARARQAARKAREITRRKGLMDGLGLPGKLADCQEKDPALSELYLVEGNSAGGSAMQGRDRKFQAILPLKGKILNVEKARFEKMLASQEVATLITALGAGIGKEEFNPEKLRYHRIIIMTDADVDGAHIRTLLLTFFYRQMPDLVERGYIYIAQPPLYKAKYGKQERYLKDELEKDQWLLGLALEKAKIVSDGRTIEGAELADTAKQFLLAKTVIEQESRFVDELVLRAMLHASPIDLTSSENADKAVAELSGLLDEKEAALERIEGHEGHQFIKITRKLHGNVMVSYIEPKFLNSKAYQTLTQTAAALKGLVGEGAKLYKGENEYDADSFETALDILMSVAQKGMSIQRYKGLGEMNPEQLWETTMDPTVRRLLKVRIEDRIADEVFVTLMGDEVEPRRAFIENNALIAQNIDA
T1 sequence (P48371 whole entry A92T): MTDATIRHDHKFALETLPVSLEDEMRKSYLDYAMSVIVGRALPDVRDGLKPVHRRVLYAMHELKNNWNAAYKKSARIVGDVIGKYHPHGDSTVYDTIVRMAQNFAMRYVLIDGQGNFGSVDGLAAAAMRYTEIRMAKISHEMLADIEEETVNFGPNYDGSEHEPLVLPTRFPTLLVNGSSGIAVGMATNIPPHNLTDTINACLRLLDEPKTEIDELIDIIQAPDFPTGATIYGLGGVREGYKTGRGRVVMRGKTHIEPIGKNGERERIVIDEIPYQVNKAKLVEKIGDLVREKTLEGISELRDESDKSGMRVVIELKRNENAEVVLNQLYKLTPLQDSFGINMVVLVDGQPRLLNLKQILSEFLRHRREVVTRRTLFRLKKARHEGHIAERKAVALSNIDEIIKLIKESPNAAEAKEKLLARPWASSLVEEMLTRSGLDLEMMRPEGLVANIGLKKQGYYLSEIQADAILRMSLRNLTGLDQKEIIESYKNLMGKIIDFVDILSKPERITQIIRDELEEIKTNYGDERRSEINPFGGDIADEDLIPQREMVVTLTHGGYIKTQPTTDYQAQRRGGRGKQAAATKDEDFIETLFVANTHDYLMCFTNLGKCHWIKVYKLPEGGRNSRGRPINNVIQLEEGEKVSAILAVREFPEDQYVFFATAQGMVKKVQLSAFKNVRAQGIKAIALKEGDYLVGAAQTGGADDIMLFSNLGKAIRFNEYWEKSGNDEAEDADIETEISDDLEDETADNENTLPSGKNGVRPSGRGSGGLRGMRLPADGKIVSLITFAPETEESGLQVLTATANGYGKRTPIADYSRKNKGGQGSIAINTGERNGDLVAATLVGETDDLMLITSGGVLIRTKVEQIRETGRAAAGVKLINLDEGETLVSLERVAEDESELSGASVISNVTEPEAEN
T1 sequence (P22118 whole entry partner): as the sequence (P22118 whole entry partner) above
Sequence of N. gonorrhoeae topoisomerase IV ParC^S87N (Neisseria gonorrhoeae, UniProt P48374, S87N) (P48374 whole entry S87N): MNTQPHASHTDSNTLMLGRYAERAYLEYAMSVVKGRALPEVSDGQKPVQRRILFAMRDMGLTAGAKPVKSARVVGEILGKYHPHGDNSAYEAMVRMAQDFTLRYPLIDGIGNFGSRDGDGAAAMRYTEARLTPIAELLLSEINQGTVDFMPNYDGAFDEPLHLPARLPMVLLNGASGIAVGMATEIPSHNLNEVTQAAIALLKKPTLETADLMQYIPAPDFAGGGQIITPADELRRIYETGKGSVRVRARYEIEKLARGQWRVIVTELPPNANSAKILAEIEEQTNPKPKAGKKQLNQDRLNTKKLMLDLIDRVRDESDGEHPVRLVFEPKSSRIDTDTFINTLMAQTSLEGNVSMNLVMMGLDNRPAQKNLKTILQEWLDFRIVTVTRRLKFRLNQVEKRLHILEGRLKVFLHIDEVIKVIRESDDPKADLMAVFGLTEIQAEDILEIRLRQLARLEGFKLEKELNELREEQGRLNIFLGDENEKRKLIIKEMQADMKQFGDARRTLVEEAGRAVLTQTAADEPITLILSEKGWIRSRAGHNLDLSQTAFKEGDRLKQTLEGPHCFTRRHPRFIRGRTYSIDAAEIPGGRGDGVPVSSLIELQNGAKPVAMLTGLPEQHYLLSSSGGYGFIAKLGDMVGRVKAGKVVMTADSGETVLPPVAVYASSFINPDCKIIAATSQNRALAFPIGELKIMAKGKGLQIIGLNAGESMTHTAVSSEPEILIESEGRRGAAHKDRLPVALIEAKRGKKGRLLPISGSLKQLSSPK
Sequence of N. gonorrhoeae topoisomerase IV ParC^E91G (P48374 whole entry E91G): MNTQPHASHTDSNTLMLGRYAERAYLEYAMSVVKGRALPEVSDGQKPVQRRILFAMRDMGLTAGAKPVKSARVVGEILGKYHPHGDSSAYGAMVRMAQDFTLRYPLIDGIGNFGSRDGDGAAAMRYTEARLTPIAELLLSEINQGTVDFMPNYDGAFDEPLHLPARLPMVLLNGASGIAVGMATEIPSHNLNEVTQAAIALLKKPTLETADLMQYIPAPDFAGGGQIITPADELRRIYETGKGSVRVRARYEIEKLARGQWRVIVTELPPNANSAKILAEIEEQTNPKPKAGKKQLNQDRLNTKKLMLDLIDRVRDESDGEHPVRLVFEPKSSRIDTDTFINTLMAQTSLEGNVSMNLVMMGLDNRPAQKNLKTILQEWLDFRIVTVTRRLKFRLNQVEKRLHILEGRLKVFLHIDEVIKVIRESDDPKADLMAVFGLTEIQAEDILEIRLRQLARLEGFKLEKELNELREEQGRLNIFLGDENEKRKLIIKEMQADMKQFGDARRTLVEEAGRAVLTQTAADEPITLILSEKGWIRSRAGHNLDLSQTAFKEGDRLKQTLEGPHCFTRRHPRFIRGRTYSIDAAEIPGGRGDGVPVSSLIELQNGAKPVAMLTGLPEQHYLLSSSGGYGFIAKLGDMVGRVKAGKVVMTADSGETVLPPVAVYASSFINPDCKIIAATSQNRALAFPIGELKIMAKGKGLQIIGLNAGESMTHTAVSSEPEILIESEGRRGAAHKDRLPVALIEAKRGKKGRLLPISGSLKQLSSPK

For the molecule `O=c1ccc2ncc(=O)n3c2n1C[C@H]3CN1CCC(NCc2cc3c(cn2)OCCC3)CC1` [gepotidacin], the concentration for half-maximal inhibition (IC50) in test [1] (GyrA A92T gyrase, read-out: IC50, inhibition of DNA supercoiling) came out at 8.5 ± 2.1 µM; in test [9] (GyrA S91F gyrase, read-out: IC50, inhibition of DNA supercoiling), 7.5 µM. Further, the “fold increase of supercoiling IC50 vs WT gyrase” value in [1] (GyrA A92T vs WT) is about 1.7 fold; in test [9] (GyrA S91F vs WT), about 1.5 fold. Moreover, the “Adj-Max Cleavage, single-stranded DNA breaks” value in test [2] stood at 5.5%. For the same molecule, the EC50 in test [2] (GyrA S91F gyrase, read-out: CC50, single-stranded DNA cleavage) was determined as 17.2 µM; in [6] it was 0.2 µM; in test [7] it was 0.6 µM; in test [8], 0.2 µM. The “fold decrease of adjusted maximal DNA cleavage vs WT” value in test [2] (GyrA S91F vs WT) was about 3.1 fold. In addition, the “outcome of phase III clinical trial” value in [3] is “met its primary efficacy end point; also recorded: noninferiority”. For the same molecule, 0.5 µg/mL (≈ 1.11 µM) was the least that counted as inhibitory in test [4] (MIC). The “fold decrease of Adj-Max Cleavage vs WT” value in test [5] is listed as about 4.2 fold.

The term IC50 denotes the concentration at which inhibition is half-maximal. By MIC is commonly meant the lowest concentration found to suppress growth. Low readings indicate inhibition by little substance, high ones a need for much substance.
